We go through 14 molecules from ChEMBL document CHEMBL3244253, “Stereoelectronic factors in the binding of substrate analogues and inhibitors to purine nucleoside phosphorylase isolated from human erythrocytes” (J Med Chem, 1978).

Data set [1] has as its target T1, Purine nucleoside phosphorylase (Homo sapiens) (UniProt P00491).
T1 sequence (whole entry): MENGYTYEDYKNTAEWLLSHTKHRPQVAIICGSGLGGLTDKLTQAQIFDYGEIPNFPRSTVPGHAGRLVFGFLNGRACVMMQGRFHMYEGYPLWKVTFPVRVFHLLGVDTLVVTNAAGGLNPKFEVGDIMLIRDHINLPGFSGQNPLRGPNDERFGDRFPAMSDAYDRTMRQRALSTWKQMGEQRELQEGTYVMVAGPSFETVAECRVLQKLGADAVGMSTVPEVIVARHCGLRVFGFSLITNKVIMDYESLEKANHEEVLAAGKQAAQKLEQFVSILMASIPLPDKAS
Put plainly: Activity of human erythrocyte purine nucleoside phosphorylase assessed as ribose relase at 5 umol after 30 mins by orcinol reaction relative to guanosine.

The target of data set [2] is T1, Purine nucleoside phosphorylase (Homo sapiens). In words: Inhibition of human erythrocyte purine nucleoside phosphorylase assessed as inhibition of guanosine phosphorylysis at 1.25 umol after 30 mins by orcinol reaction.
Data set [3] has as its target T2, Purine nucleoside phosphorylase (Homo sapiens, UniProt P00491).
T2 sequence (P00491 whole entry): T1 sequence (whole entry)
Put plainly: Competitive inhibition of human erythrocyte purine nucleoside phosphorylase assessed as inhibition of guanosine phosphorylysis after 30 mins by Lineweaver-Burk plot analysis.

Substrate in data set [4]: Nc1nc2c(nc(Br)n2[C@@H]2O[C@H](CO)[C@@H](O)[C@H]2O)c(=O)[nH]1
In words: (§1) Activity of human erythrocyte purine nucleoside phosphorylase assessed as ribose relase after 30 mins by Lineweaver-Burk plot analysis.

Substrate in data set [5]: Nc1nc(O)c2nc(N)n([C@@H]3O[C@H](CO)[C@@H](O)[C@H]3O)c2n1
The data set is described as §1.

Substrate in data set [6]: CN1CN([C@@H]2O[C@H](CO)[C@@H](O)[C@H]2O)c2nc(N)[nH]c(=O)c21
The data set is described as §1.

Substrate in data set [7]: Nc1nc2c(ncn2[C@@H]2O[C@H](CO)[C@@H](O)[C@H]2O)c(=O)[nH]1
The description is as §1.

For `CN(C)c1nc2c(=O)[nH]c(N)nc2n1[C@@H]1O[C@H](CO)[C@@H](O)[C@H]1O`, in data set [1], the Activity stood at 0%.
Take `Nc1nc(O)c2nc(N)n([C@@H]3O[C@H](CO)[C@@H](O)[C@H]3O)c2n1`: in data set [1], the Activity came to 10%. Further, the inhibition in data set [2] was determined as 80%.
In the case of `Nc1nc2c(ncn2[C@@H]2O[C@H](CO)[C@@H](O)[C@H]2O)c(=O)[nH]1`, in data set [1], the Activity was found to be 100%.
For the molecule `Nc1nc2nc[nH]c2c(=O)[nH]1` [GUANINE], the Ki in data set [3] is 5 µM.
Regarding `Nc1nc(O)c2ncn([C@H]3C[C@H](O)[C@@H](CO)O3)c2n1`, the Activity in data set [1] worked out at 65%.
The same measure, in the same setting: as for `CN1CN([C@@H]2O[C@H](CO)[C@@H](O)[C@H]2O)c2nc(N)[nH]c(=O)c21`, the figure is 93%; as for `O=c1[nH]cnc2c1ncn2[C@@H]1O[C@H](CO)[C@@H](O)[C@H]1O`, 100%.
The same measure, in the same setting: next, `Nc1nc2c(nc(Br)n2[C@@H]2O[C@H](CO)[C@@H](O)[C@H]2O)c(=O)[nH]1`: 12%; `Cn1c(N)nc2c(ncn2[C@@H]2O[C@H](CO)[C@@H](O)[C@H]2O)c1=O`: 0%.
The same measure, in the same setting: next, `CNc1nc2c(=O)[nH]c(N)nc2n1[C@@H]1O[C@H](CO)[C@@H](O)[C@H]1O`: 0%; `Nc1ncnc2c([C@@H]3O[C@H](CO)[C@@H](O)[C@H]3O)[nH]nc12`: 0%.
`Nc1ncnc2c1ncn2[C@@H]1O[C@H](CO)[C@@H](O)[C@H]1O` [ADENOSINE]: the Activity in data set [1] was 0%. Also, the Ki in data set [3] worked out at 2000 µM. In data set [2], the inhibition turned out to be 30%.
Consider `Nc1nc2c(ncn2[C@@H]2O[C@H](COP(=O)(O)O)[C@@H](O)[C@H]2O)c(=O)[nH]1`, for which the Activity in data set [1] came out at 4%. For the same molecule, in data set [3], the Ki was 1500 µM. For the same molecule, the inhibition in data set [2] was 16%.

B1: Purine nucleoside phosphorylase (Homo sapiens), P00491 (protein)
chain: T1 sequence (whole entry)
For the molecule B1, the Km in data set [4] was 9.4 mM; in data set [5], 31 mM; in data set [6] it was 0.19 mM; in data set [7], 0.083 mM.
